From patent US20180344726A1, “ABUSE RESISTANT TRANSDERMAL DELIVERY DEVICES AND COMPOSITIONS COMPRISING AN OPIOID AGONIST AND A NON-TRANSDERMALLY DELIVERED N-OXIDE DERIVATIVE OF AN OPIOID ANTAGONIST FOR THE TREATMENT OF PAIN” (priority 2015, published 2018)
Like-named read-outs stand apart in the source and are kept apart here.

Experiments:
Assay type in all cases: physicochemical
[1] = Concentration of saturated antagonist solutions in phosphate buffer pH 5.0; conditions: phosphate buffer pH 5.0, stirred overnight, filtered
Procedure: The determination of in vitro skin permeation was performed with saturated solutions of the respective antagonist species. Therefore an excess of the antagonist was weighed in phosphate buffer of pH 5.0 and stirred overnight. pH was monitored and, if necessary, adjusted. The cells were incubated at 32° C. Solutions were filtrated through a syringe filter (1 μm PTFE) prior to application into the diffusion cells. Concentrations of the solutions were determined.
The determination of naloxone and naloxone N-oxide in the acceptor medium of the in vitro skin permeations samples (receptor phase) was done by HPLC with UV-detection.

[2] = pKa analysis by pH-metric triple titration; conditions: aqueous solution, […] C., […] KCl, read-out: pKa
Procedure: (§1) pKa analysis was performed using a pH-metric method. […] No precipitation or degradation was observed and two pKas were determined from the potentiometric data. Log P was determined using the potentiometric (pH-metric method). The sample was titrated in various ratios of octanol/water in two titrations covering the pH range 2.0-12.0 at concentrations of 1.9-1.1 mM. The shift of the aqueous pKas in the presence of octanol was used to determine the log P of the neutral species.

[3] = Log P by potentiometric (pH-metric) octanol/water titration; conditions: Neutral species, 25.0 ° C., 0.15M KCl, read-out: LogP
Procedure: as §1

With `C=CCN1CC[C@]23c4c5ccc(O)c4O[C@H]2C(=O)CC[C@@]3(O)[C@H]1C5` [Naloxone, (4R,4aS,7aR,12bS)-4a,9-dihydroxy-3-prop-2-enyl-2,4,5,6,7a,13-hexahydro-1H-4,12-methanobenzofuro[3,2-e]isoquinoline-7-one, reference compound] the “Concentration saturated solution c” value [1] was 4460 µg/mL, the pKa ([2]; Type Acid) was 9.15 ± 0.01 and the pKa ([2]; Type Base) was 8.07 ± 0.01. The logP [3] was 1.97.
